Results as given in patent US11814371B2, “Heterocyclic compound” (MEDSHINE DISCOVERY INC., priority 2020, dated 2023).

Tests used:
[1] = system: rat DME model induced by CA-1 (100 ng); experiment: In vivo pharmacodynamic study on rat DME model induced by CA-1 (retinal thickness by OCT); set-up: species or system male SD rats
Description: 20 rats were selected from 25 male SD rats and divided into 5 groups according to their body weight, with 4 rats in each group and 1 spare rat in each group, and all the animals were examined by optical coherence tomography before modeling, 48 hours and 72 hours after modeling, respectively. The appropriate scanning position for measurement was selected and the retinal thickness was marked. Through the changes of retinal thickness in each group, the effects of the test compounds on improving retinal edema were compared, and the active compounds were screened. The above experimental operations of modeling and inspection should follow the order of the right eye first and then the left eye.
• Species: Rat • Strain: SD rat, SPF grade • Age and weight: 7-8 weeks old, weighing 250-300 g • Sex: Male • Supplier: Zhejiang Vital River Laboratory Animal Technology Co., Ltd. • Animal certificate number: • 2.2 Molding agent • Carbonic anhydrase-1 (CA-1, Sigma) • 3. Experimental methods and procedures • 3.1 Administration and modeling
On the day of modeling, all animals were first administered the vehicle or the test compound orally, and about 4 hours later, the animals were injected with physiological saline (5 µL/eye) or CA-I (100 ng/eye) into the vitreous cavity of both eyes for modeling, and the end time of injection in the second eye was recorded as 0 hour, and the vehicle (10 % DMSO + 90 % labrasol) or the test compound was administered orally to all animals at 4±0.5 hours, 20±0.5 hours, 28±0.5 hours, 44±0.5 hours, 52±0.5 hours and 68±0.5 hours after modeling, respectively.
Before modeling, 48 hours and 72 hours after modeling, animals were first anesthetized, and then examined by optical coherence tomography (OCT), and before anesthesia, appropriate mydriatic agents were used to ensure that the pupils of animals were completely dilated, and the animals were anesthetized by a combination of intramuscular injection of Zoletil (5 mg/kg) and Xylazine solution (3 mg/kg). OCT inspection requirements are as follows: • 1) The optic disc should be placed in the center of the infrared fundus image during data collection; • 2) the retinal scan was performed in a “pozidriv” type, with the crossover point over the optic disc, and the retina was scanned at the widest length. • 3) The software tracking function was used as much as possible for comparison of retinal thickness before and after administration, and if the tracking function was not available, the eye position was adjusted as much as possible to be consistent with that before administration, and the clarity of the tomographic images was ensured as much as possible to facilitate comparison of retinal thickness before and after administration.

[2] = Pharmacokinetic test in rat eyes after intragastric administration (eye tissue and plasma, LC-MS/MS); assay type: in vivo, male SD rats; settings: intragastric 75 mg/kg
Description: Male SD rats were used as test animals, and LC-MS/MS method was used to determine the drug concentrations in eye tissues at different times after intragastric administration of the test compound. The pharmacokinetic behavior of the compounds in the eyes of rats after intragastric administration was studied, and the pharmacokinetic characteristics were evaluated.
2.2 Test animals: Six healthy adult male rats were divided into three groups with 4 eyes in each group. Animals were purchased from Beijing Vital River Laboratory Animal Technology Co., Ltd.
2.3 Drug preparation: An appropriate amount of sample was weighed, and an appropriate amount of DMSO and labrasol were added in sequence according to the volume ratio of 10:90, then the mixture was stirred and sonicated to reach a clear state of 15 mg/mL for intragastric administration.
2.4 Administration: 6 male SD rats were divided into 3 groups, after fasting for one night, the intragastric administration group was administered with a volume of 5 mL/kg and a dose of 75 mg/kg.
Male rats were euthanized at 1, 4 and 8 hours after intragastric administration of compound 1, and eye tissues from 2 eyes of each rat were combined and the concentration of compound in the retina and choroid/sclera was measured.
The LC-MS/MS method was used to determine the content of the test compound in the eye tissues of rats after intragastric administration. The linear range of the method was from 2.00 to 6000 nmol/L; the eye tissue concentration data are presented in Table 3, in which each eye tissue concentration data was obtained from the combined left and right eyes of 2 rats.

[3] = oral 75 mg/kg, 48 hours after modeling
[4] = oral 75 mg/kg, 72 hours after modeling

Row | AUC0-8h Choroid and sclera [2] | Concentration of compound in Choroid and sclera ([2]; 1 hour) | Concentration of compound in Retina ([2]; 1 hour) | Concentration of compound in Choroid and sclera ([2]; 4 hours) | Concentration of compound in Retina ([2]; 4 hours) | Concentration of compound in Choroid and sclera ([2]; 8 hours) | concentration at 1 h ([2]; male, SD, plasma, oral, 1 hour, read-out: Concentration of compound in Plasma) | concentration at 4 h ([2]; male, SD, plasma, oral, 4 hours, read-out: Concentration of compound in Plasma) | concentration at 8 h ([2]; male, SD, plasma, oral, 8 hours, read-out: Concentration of compound in Plasma) | AUC(0-t) ([2]; male, SD, plasma, po, read-out: AUC0-8h Plasma) | SMILES | relief rate of retinal thickening [1, 3] | relief rate of retinal thickening [1, 4] | relief rate of retinal thickening ([1]; oral 50 mg/kg, 48 hours after modeling) | relief rate of retinal thickening ([1]; oral 50 mg/kg, 72 hours after modeling)
1 | – | – | – | – | – | – | – | – | – | – | COc1ccc(F)c(CNC(=O)c2cn(Cc3ccc(Cn4cc(F)ccc4=O)c(F)c3)nc2C2COC2)c1F [Compound 8] | 84% | 116% | – | –
2 | 2803 nmol·h/kg | 640 nmol/kg | 90.8 nmol/kg | 450 nmol/kg | 147 nmol/kg | 82 nmol/kg | 3.69 µM | 6.44 µM | 0.729 µM | 22 µM·h | COc1ccc(F)c(CNC(=O)c2cn(Cc3ccc(Cn4cc(F)ccc4=O)cc3)nc2C2COC2)c1F [Compound 1] | 100% | 100% | 19% | 79%
